The test system of series [1] is Rattus norvegicus. Description: AUC (0 to 6 hrs) in rat at 10 mg/kg, po. It is filed as ADME, organism-based, Plasma. More on the design: time < 6 hr, dose 10 mg/kg, route oral. The settings on record: in vivo.
Another series concerns Caco-2. Description: Apparent permeability of the compound in human Caco2 cells. It is filed as ADME, cell-based. In general terms: Caco-2 cells form a polarised layer with tight junctions and transporters.
Series [2] is described as follows: Intrinsic clearance in rat hepatocytes assessed per 10^6 cells at 1 uM up to 180 mins. It is filed as ADME, cell-based, Hepatocyte. The settings on record: read-out: CLH.
Series [3] is described as follows: Intrinsic clearance in human hepatocytes assessed per 10^6 cells at 1 uM up to 180 mins. It is filed as ADME, cell-based, Hepatocyte. The settings on record: read-out: CLH.
Series [4] deals with Rattus norvegicus. Description: Oral bioavailability in Sprague-Dawley rat at 3 mg/kg. It is filed as ADME, organism-based. To be noted: in vivo.
Series [5] relates to Rattus norvegicus. Description: Terminal half life in Sprague-Dawley rat at 3 mg/kg, iv. It is filed as ADME, organism-based. Set-up: dose 3 mg/kg, route intravenous. To be noted: in vivo.
A further series has as its system Nucleic Acid. Description: Ratio of drug level in brain to plasma in Sprague-Dawley rat at 3 mg/kg, po after 3 hrs. It is filed as ADME, organism-based. More on the design: dose 3 mg/kg, route oral.
A short description of series [6]: Solubility of the compound at pH 7.4. It is filed as physicochemical. The settings on record: buffer.
Series [7] is described as follows: Dissociation constant, pKa of the compound. It is filed as physicochemical.
Series [8] in a line: Lipophilicity, log D of the compound. It is filed as physicochemical. To be noted: octanol/water.

≈ marks a conversion by molar mass, not a printed value.

Turning to `COc1cccc(-c2cccc([C@]3(C)CC(=O)N(C)C(=N)N3)c2)c1`, the exposure (AUC) (in general, concentration integrated over time) with Rattus norvegicus [1] was under 1 µM·h.
In the case of `CN1C(=N)N[C@](C)(c2cccc(-c3cccc(C#N)c3)c2)CC1=O`, in the series with Rattus norvegicus [1], the area under the curve (AUC) amounted to 8.6 µM·h.
Still for that read-out and setting: for `CN1C(=N)N[C@](C)(c2cccc(-c3cccnc3)c2)CC1=O` the value was under 1 µM·h.
For `CC#Cc1cncc(-c2cc(Cl)c([C@]3(C)CC(=O)N(C)C(=N)N3)s2)c1`, the Papp (in general, the rate of passage across a membrane or cell layer, normalised by area and donor concentration) with Caco-2 amounted to 15.3 ×10⁻⁶ cm/s. Besides, the hepatocyte CLint at 1 µM in series [2] is 4.9 µL/min/1e6 cells; in series [3], 2.7 µL/min/1e6 cells. Besides, the F in the series with Rattus norvegicus [4] is listed as 69%. Besides, the “beta t1/2” value in the series on Rattus norvegicus [5] came to 2.8 h. Further, the BPR with Nucleic Acid worked out at 3. Besides, the solubility (in general, the dissolved amount per volume that the medium holds) in [6] is 200 µM (≈ 74.6 µg/mL). In addition, the pKa (usually the pH at which an ionisable group is half protonated) in series [7] was 7.5. For the same compound, the logD (usually lipophilicity at a set pH, counting ionised and neutral species) in series [8] came out at 1.8.

Values taken from ChEMBL document CHEMBL2150878, “Discovery of an Orally Available, Brain Penetrant BACE1 Inhibitor that Affords Robust CNS Aβ Reduction” (ACS Med Chem Lett, 2012).
